Literature values, collected in patent US20210299202A1, “FORMULATION OF C[…]” (CARDINAL ADVISORY LIMITED, priority 2018, published 2021).

How the values were obtained:
[1] = smoked, pulmonary absorption
[2] = oral ingestion

CCCCCc1cc(O)c2c(c1)OC(C)(C)[C@@H]1CCC(C)=C[C@@H]21 [THC, delta-9-tetrahydrocannabinol]
time to peak plasma THC concentration [1]: 6 to 10 min
time to peak plasma concentration [2]: 2 to 6 h
